Assay results from PubChem BioAssay (NCI).
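Tested at 5 concentrations; 48 h exposure; 96-well plates; endpoints linearly interpolated, else capped at highest concentration. Definition used: TGI = concentration required for complete inhibition of growth.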

Columns and labels:
Assay in all cases: NCI anticancer screen, dose series, 48 h
[1] = system: K-562 leukemia
[2] = system: KM12 colon
[3] = system: LOX IMVI melanoma
[4] = system: M14 melanoma
[5] = system: MALME-3M melanoma
[6] = system: MDA-MB-231 breast
[7] = system: OVCAR-5 ovarian
[8] = system: RPMI-8226 leukemia
[9] = system: SF-539 CNS
[10] = system: SK-MEL-5 melanoma

Compound | TGI [1] [µM] | TGI [2] [µM] | TGI [3] [µM] | TGI [4] [µM] | TGI [5] [µM] | TGI [6] [µM] | TGI [7] [µM] | TGI [8] [µM] | TGI [9] [µM] | TGI [10] [µM]
N#CC(C#N)=Cc1c(O)ccc2ccccc12 | 24.6 | 33.3 | 26.6 | 28.3 | 39.8 | 30.4 | 31.7 | 38.6 | 29.1 | 26.2
CCOC(=O)C1=C(C)C(C(=O)OC)/C(=C/c2cccc3cccnc23)C1=O (stereo not given) | > 10 | > 10 | > 10 | > 10 | > 10 | > 10 | > 10 | > 10 | > 10 | > 10
COC(=O)/C=C\C(C#N)(C#N)N=Cc1ccc(C)s1 | > 100 | 31.8 | 3.19 | 3.5 | 3.09 | 18.3 | 15.9 | > 32.5 | 10.1 | 19.7
Cc1cc(Nc2ccc(N=Nc3ccc(O)c4ncccc34)cc2)nc(C)n1 | 39.1 | 33.3 | 43.8 | 36.1 | 44.6 | 73.7 | > 87.9 | 32.5 | 20.6 | 26.3
